Laboratory results as given in patent US10085965B2, “Cannabinoid alcoholic drink” (priority 2016, dated 2018).

Experiments:
[1] = Dissolution of CBD in ethanol and consumable alcohol (precipitation / clarity); assay type: physicochemical
Procedure: The Combining Cannabinoid Solution with Consumable Alcohol(s) step 156 involves adding the Solution from 154 to a plurality of consumable alcohols measured in 155 in order to create a CAD. In one example, 50 mg of isolated cannabinoid is measured 151. Approximately 5 mL of ethanol is measured 152. The cannabinoid is combined with the ethanol 153. A cannabinoid solution is created by ensuring the cannabinoid is fully dissolved in the ethanol 154. The resulting solution is then combined with one or more consumable alcohols 156. In this example, approximately 745 mL of vodka, to create a standard 750 mL bottle of cannabinoid infused vodka. In other embodiments, other volumes of CADs can be produced. In yet another embodiment, the volume fraction of cannabinoid/ethanol solution in total volume of CADs is equal to or less than 1%.
One particular cannabinoid that can be used is CBD. […] Thus, the CBD and ethanol combine to remain as a fully dissolved, clear solution. […]
The Combining CBD/Ethanol Solution with consumable Alcohol(s) step 256 involves adding the Solution from 254 to the plurality of consumable alcohols measured in 255 in order to create a CAD. In one example, 50 mg of isolated CBD is measured 251. Approximately 5 mL of ethanol is measured 252. […]

[2] = test system: binge alcohol-induced neurodegeneration; settings: transdermal delivery, rodent model; Liputa et al. 2013; cited from earlier work
[3] = Effects reported by people when the CBD alcoholic drink is consumed; assay type: in vivo; settings: CBD consumed together with alcohol in the drink; reports of consumers
Source text: When consumed, the positive effects of the CBD help to offset the deleterious effects of the alcohol.

Question: With `C=C(C)[C@@H]1CCC(C)=C[C@H]1c1c(O)cc(CCCCC)cc1O` [CBD, cannabidiol] as the compound, how does the “dissolution of CBD in ethanol” value ([1]; 7.8 mg CBD in 1 mL ethanol) read?
Answer: no problem with dissolution

Question: What about the “precipitation of CBD from the solution” value ([1]; amounts/ratios described: 50 mg in approx. 5 mL ethanol, combined with approx. 745 mL vodka, room temperature) of the same compound?
Answer: will not precipitate out

Question: What about the “effect on binge alcohol-induced neurodegeneration” value [2] of the same compound?
Answer: attenuate binge alcohol-induced neurodegeneration

Question: What about the “effects reported when consumed” value [3] of the same compound?
Answer: euphoria, a sense of being upbeat and feeling little to no effect of the alcohol
